Measurements: US11268958B2, “Bacteria-specific labeled substrtates as imaging biomarkers to diagnose, locate, and monitor infections” (THE JOHNS HOPKINS UNIVERSITY, priority 2012, dated 2022)
Read-outs that look alike come from different tables or passages of the source.

How the values were obtained:
[1] = test system: Mycobacterium tuberculosis
Method: (§3) In vitro uptake assays: Freeze dried reference strains of various bacterial species were purchased from American Type Culture Collection (Manassas, Va.) and grown to mid-log phase (OD600 1.0) in Lysogeny Broth (LB) or Middlebrook 7H9 broth supplemented with 10% oleic acid-albumin-dextrose-catalase (Difco, Detroit, Mich.) and 0.05% Tween 80 (Sigma). The number of colony forming units (CFUs) were enumerated by dilution and plating onto solidified media. Tracer uptake assays were performed by incubating bacterial cultures with 7.4 kBq per ml culture of tracer at 37° C. with rapid agitation for 4 hours, with sampling at 0, 30, 120, and 240 minutes. As a control, heat killed (90° C. for 20 minutes) bacteria were similarly incubated with each tracer. Bacteria were pelleted by centrifugation and washed three times with PBS. The activity for each pellet was measured using an automated gamma counter (1282 Compugamma CS Universal gamma counter, LKB Wallac). Background counts were subtracted from sample counts. Six independent replicates were used for each tracer, and for each bacterial strain. Uptake was expressed as the percentage of total tracer added to the culture that resided within the cell pellet.

[2] = test system: S. aureus; test: Scintillation counting of resected tissues in S. aureus thigh infection vs LPS; assay type: in vivo, CBA/J mice; conditions: live S. aureus right thigh, 50 μg LPS left thigh, IV
Method: We next investigated whether [^3H]-2-F-PABA was capable of detecting infection with S. aureus in vivo. […] [^3H]-2-F-PABA was injected IV using a tail vein catheter. Mice were sacrificed following injection, tissues were then resected and radiotracer uptake measured by scintillation counting.

[3] = test system: Staphylococcus aureus, Escherichia coli, Mycobacterium smegmatis; test: Differential intracellular accumulation in three model bacteria; conditions: S. aureus, E. coli, M. smegmatis
Method: as §3

[4] = test system: J774 macrophages; test: Tracer uptake in host cells (J774 macrophages); assay type: cell-based; conditions: for accumulation in eukaryotic cell line: J774 macrophage (data not shown)
[5] = test system: Staphylococcus aureus; test: Intracellular tracer uptake assay in S. aureus cultures; assay type: cell-based; conditions: for intracellular uptake / probe incorporated by bacteria (percent of total radioactivity): S. aureus; for probe incorporated by bacteria (percent of total radioactivity): gram positive control, 120 minutes
[6] = test system: heat killed bacteria; test: Tracer uptake in heat killed bacteria (negative control); assay type: cell-based
Text: Background counts were subtracted from sample counts.
(§1) [^18F]FDS uptake and imaging. […] Tissues were collected for direct gamma counting.

[7] = test system: Escherichia coli; test: Intracellular tracer uptake assay in E. coli cultures; assay type: cell-based
[8] = test system: Mycobacterium smegmatis; test: Intracellular tracer uptake assay in M. smegmatis cultures; conditions: 2 hours of incubation
Method: as §3

[9] = test system: Human Brain Microvascular Endothelial Cells (HBMEC); conditions: 2 h
[10] = test system: WEHI 164 fibroblasts; test: Tracer uptake in WEHI 164 fibroblasts; assay type: cell-based; conditions: WEHI 164 fibroblast (data not shown)
[11] = test system: E. coli; conditions: for right thigh vs. left thigh uptake ratio (gamma counts of resected tissues) / PET signal intensity, infected right thigh versus control left thigh (ROIs): live E. coli right thigh, heat killed E. coli left thigh; for PET signal intensity, infected right thigh versus control left thigh (ROIs): 8 hours incubation
[12] = test system: Enterobacteriaceae family; test: [18F]FDS uptake in representative organisms: Enterobacteriaceae; assay type: cell-based; conditions: members of the Enterobacteriaceae family
Method: as §1
(§2) To further assess the specificity of uptake, E. coli cultures were co-incubated with [^18F]FDS and increasing concentrations of unlabeled sorbitol (FIG. 6B). […] The presence of a srl gene cassette responsible for sorbitol transport, phosphorylation, and oxidation was noted within the annotated genome of E. coli. To predict the range of organisms capable of [^18F]FDS uptake, and therefore detection by PET, the srlD, the gene encoding E. coli sorbitol-6-phosphate dehydrogenase was used to query the UniProtKB database of genome sequenced bacterial species. Alignment and percentage identity was calculated using ClustalOmega. We then selected representative organisms from this panel to test for [^18F]FDS uptake (FIG. 6C).

[13] = test system: E. coli vs S. aureus; test: PET imaging and gamma counting in mixed infection model (E. coli right thigh, S. aureus left thigh); conditions: 6 hours incubation, imaging
[14] = test system: K. pneumoniae; test: Intracellular tracer uptake assay in K. pneumoniae cultures; conditions: after 120 minutes
Method: as §3

[15] = test system: Pseudomonas aeruginosa; test: [18F]FDS uptake in representative organisms: Pseudomonas aeruginosa; assay type: cell-based; conditions: aerobic gram-negative rod Pseudomonas aeruginosa
Method: as §1, §2

[16] = test system: K. pneumoniae; test: PET imaging and gamma counting in K. pneumoniae pulmonary infection model; assay type: in vivo, CBA/J mice
[17] = test system: Enterococcus, Staphylococcus and Streptococcus species; test: [18F]FDS uptake in representative organisms: gram positive organisms; assay type: cell-based
Method: as §1, §2

[18] = M. tb, ^3H labeled tracers, 18 hours of incubation

## Nc1ccc(C(=O)O)c(F)c1 [2-F-PABA, 2-fluoro-PABA]
[1]; [18]
  intracellular uptake: 29.4%
[2]
  right thigh vs. left thigh uptake ratio (scintillation counting): 2.62±0.98

## Nc1ccc(C(=O)O)cc1F [3-F-PABA, 3-fluoro-PABA]
[1]; [18]
  intracellular uptake: 11.2%

## NC(CCCC(N)C(=O)O)C(=O)O (stereo not shown) [DAP, 2,6-diaminopimelic acid]
[3]
  species that take up the compound (differential uptake): E. coli and M. smegmatis

## Nc1ccc(C(=O)O)cc1 [PABA, p-aminobenzoic acid]
[1]; 2 h
  accumulation (percent of total radioactivity in bacterial pellet): 32.9%
[1]; 18 h
  accumulation (percent of total radioactivity in bacterial pellet): 96.3%
  intracellular uptake: 58.5%
[1]; M. tuberculosis, excess unlabelled tracer
  uptake on addition of excess unlabelled tracer: saturable and specific
[4]; J774 macrophages, corresponding time-points (2 and 18 hours)
  accumulation in host-cells: no significant accumulation
[5]; S. aureus mid log cultures
  uptake saturability/specificity: saturable and specific
[6]
  uptake in heat killed bacteria: no uptake
[7]; E. coli mid log cultures
  uptake saturability/specificity: saturable and specific

## O=C[C@H](O)[C@@H](O)[C@H](O)CO [XYL, D-xylose]
[3]
  species that take up the compound (differential uptake): E. coli alone

## OC[C@@H](O)[C@@H](O)[C@H](O)[C@H](O)CO [[^14C] D-mannitol, D-mannitol]
[4]; 2 h
  uptake: < 5%
[5]; 30 minutes, 5 mM glucose
  intracellular uptake: 33%
[5]; 30 minutes, 10 mM glucose
  intracellular uptake: 30%
[5]; 30 minutes, without any glucose in the media
  intracellular uptake: 53.5%
[5]; 2 hours of incubation
  intracellular uptake: 66%
[6]
  uptake in heat killed bacteria: No uptake
[8]
  intracellular uptake: 83%
[9]
  uptake: < 5%
[7]; E. coli, 2 hours of incubation
  intracellular uptake: 82%

## OC[C@H]1OC(O)[C@H]([18F])[C@@H](O)[C@@H]1O (stereo partly shown) [[^18F]FDG, 2-[^18F]-fluorodeoxyglucose, reference compound]
[4]
  accumulation in eukaryotic cell line: accumulated
[5]
  probe incorporated by bacteria (percent of total radioactivity): 50.3%±3.1%
[6]
  uptake in heat killed bacteria: did not incorporate
[10]
  accumulation in eukaryotic cell line: accumulated
[11]
  right thigh vs. left thigh uptake ratio (gamma counts of resected tissues): 1.03±0.09
  PET signal intensity, infected right thigh versus control left thigh (ROIs): did not produce a significant difference
[11]; mice, CT coregistration
  sites of PET signal concentration: heart and bladder

## OC[C@@H](O)[C@@H](O)[C@H](O)[C@@H]([18F])CO [[^18F]FDS, 2-[^18F]-fluorodeoxysorbitol]
[12]
  accumulation of the probe: accumulated
[4]
  accumulation in eukaryotic cell line: not
[5]
  probe incorporated by bacteria (percent of total radioactivity): 0.47%±0.09%
[13]
  PET signal at E. coli infected thigh versus S. aureus infected thigh: significantly more intensity
[6]
  uptake in heat killed bacteria: did not incorporate
[14]
  probe associated with bacteria (percent of total radioactivity): 71.1%±8.6%
[7]; E. coli K12, after 120 minutes
  probe associated with bacteria (percent of total radioactivity): 72.2%±9.0%
[7]; E. coli co-incubated with increasing unlabeled sorbitol
  concentration of unlabeled sorbitol that outcompetes uptake: above 40 ug/ml
[7]; E. coli co-incubated with increasing unlabeled sorbitol (FIG. 6B legend)
  concentration of unlabeled sorbitol that outcompetes uptake: above 40 μg/ml
[15]
  accumulation of the probe: did not accumulate
[10]
  accumulation in eukaryotic cell line: not
[16]
  lung vs. blood gamma count ratio: 10.89±4.09
[16]; 18.5 MBq (data not shown)
  ratio of standardized uptake values, infiltrated vs normal lung tissue ROIs: 5.02±66.33
[11]
  right thigh vs. left thigh uptake ratio (gamma counts of resected tissues): 16.37±4.12
  PET signal intensity, infected right thigh versus control left thigh (ROIs): 12 fold
[11]; mice, over 120 minutes of recording (data not shown)
  route of clearance from circulation: predominantly by the kidneys
[17]
  accumulation of the probe: did not accumulate
